In patent US11786515B2, “Anesthetic mixtures formulations for local anesthesia, at very low concentration, to be used cold with suitable packaging” (L. MOLTENI & C. DEI FRATELLI ALITTI-SOCIETA′ DI ESERCIZIO …, priority 2018, dated 2023):
Counter-ions that a name gives are not always drawn.

How the values were obtained:
[1] = cited from earlier work; for toxic dose: long-acting anesthetics
[2] = Toxic and maximum doses of local anesthetics (state of the art)
From the text: The Articaine hydrochloride always belongs to the group of the short-acting local anesthetics.

[3] = combined with a vasoconstrictor such as adrenaline

CCCNC(C)C(=O)Nc1c(C)csc1C(=O)OC (centres unmarked) [Articaine hydrochloride]
toxic dose / tolerance compared with other short-acting anesthetics ([1]; in vivo): overlapping to that of the lidocaine and mepivacaine

CCCCN1CCCC[C@H]1C(=O)Nc1c(C)cccc1C [Levobupivacaine hydrochloride]
maximum volume ([2]; 5 mg/ml solution (0.5%)): 30 mL
toxic dose [1]: 2 mg/kg body

CCN(CC)CC(=O)Nc1c(C)cccc1C [Lidocaine, Lidocaine hydrochloride]
maximum volume ([2]; human, in vivo): 15 mL
maximum dosage [1, 3]: 7 mg/kg
maximum dose [1, 3]: 500 mg

CCCCN1CCCCC1C(=O)Nc1c(C)cccc1C (centres unmarked) [Bupivacaine hydrochloride]
maximum volume ([2]; 5 mg/ml solution (0.5%)): 30 mL
toxic dose [1]: 2 mg/kg body
